The values below come from PMC5540273, “Progress towards a public chemogenomic set for protein kinases and a call for contributions” (PLoS ONE, 2017).

Experiment in all cases: KINOMEscan competition binding
For experiment [1], the target named is ERN1 (Homo sapiens, UniProt O75460). Conditions: read-out: %Inh ERN1.
Experiment [2] addresses FGFR1 (Homo sapiens, UniProt P11362). The note with it: read-out: %Inh FGFR1.
For experiment [3], the target named is CSNK1G2 (Homo sapiens, UniProt P78368). The note with it: read-out: %Inh CSNK1G2.
Experiment [4] concerns the target T1, CAMK4 (Homo sapiens, UniProt Q16566).
T1 sequence (Q16566 1-473): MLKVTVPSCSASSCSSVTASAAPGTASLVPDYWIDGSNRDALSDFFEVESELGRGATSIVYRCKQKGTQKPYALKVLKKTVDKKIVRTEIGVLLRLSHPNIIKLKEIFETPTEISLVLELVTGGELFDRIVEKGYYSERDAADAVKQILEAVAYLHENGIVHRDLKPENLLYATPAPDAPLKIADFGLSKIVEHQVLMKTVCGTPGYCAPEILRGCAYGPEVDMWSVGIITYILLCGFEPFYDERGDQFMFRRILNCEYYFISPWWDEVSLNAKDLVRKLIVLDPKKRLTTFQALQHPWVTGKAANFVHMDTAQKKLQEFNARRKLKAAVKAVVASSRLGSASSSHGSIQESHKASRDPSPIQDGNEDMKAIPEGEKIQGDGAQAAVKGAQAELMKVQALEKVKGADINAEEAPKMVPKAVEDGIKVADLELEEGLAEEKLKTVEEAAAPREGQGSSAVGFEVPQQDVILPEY
The note with it: read-out: %Inh CAMK4.

Experiment [5] deals with FYN (Homo sapiens, UniProt P06241). The note with it: read-out: %Inh FYN.
Experiment [6] concerns the target T2, CDC2L2 (Homo sapiens, UniProt Q9UQ88).
T2 sequence (Q9UQ88 1-783): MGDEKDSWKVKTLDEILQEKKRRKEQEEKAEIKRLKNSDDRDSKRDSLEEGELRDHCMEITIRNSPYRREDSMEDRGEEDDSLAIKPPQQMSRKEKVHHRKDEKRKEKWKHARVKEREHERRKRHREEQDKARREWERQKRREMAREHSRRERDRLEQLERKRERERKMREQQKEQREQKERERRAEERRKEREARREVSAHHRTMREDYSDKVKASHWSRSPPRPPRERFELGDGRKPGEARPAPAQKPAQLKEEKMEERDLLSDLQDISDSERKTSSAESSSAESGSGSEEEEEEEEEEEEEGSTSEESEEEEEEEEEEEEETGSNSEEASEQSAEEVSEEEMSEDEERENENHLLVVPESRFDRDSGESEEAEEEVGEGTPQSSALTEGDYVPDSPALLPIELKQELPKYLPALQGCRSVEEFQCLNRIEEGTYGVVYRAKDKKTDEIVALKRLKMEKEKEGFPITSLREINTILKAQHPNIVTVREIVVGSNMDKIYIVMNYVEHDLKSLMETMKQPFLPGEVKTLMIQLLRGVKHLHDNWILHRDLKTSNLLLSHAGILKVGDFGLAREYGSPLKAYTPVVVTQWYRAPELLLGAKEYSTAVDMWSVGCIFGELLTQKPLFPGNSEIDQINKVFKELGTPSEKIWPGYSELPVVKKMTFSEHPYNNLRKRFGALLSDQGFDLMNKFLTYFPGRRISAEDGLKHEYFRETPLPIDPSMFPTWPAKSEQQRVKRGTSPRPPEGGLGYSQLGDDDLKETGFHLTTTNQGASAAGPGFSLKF
The note with it: read-out: %Inh CDC2L2.

Experiment [7] deals with CAMK2A (Homo sapiens, UniProt Q9UQM7). Conditions: read-out: %Inh CAMK2A.
Experiment [8] concerns the target CLK1 (Homo sapiens, UniProt P49759). The note with it: read-out: %Inh CLK1.
The target in experiment [9] is T3, MAP3K2 (Homo sapiens, UniProt Q9Y2U5).
T3 sequence (Q9Y2U5 1-619): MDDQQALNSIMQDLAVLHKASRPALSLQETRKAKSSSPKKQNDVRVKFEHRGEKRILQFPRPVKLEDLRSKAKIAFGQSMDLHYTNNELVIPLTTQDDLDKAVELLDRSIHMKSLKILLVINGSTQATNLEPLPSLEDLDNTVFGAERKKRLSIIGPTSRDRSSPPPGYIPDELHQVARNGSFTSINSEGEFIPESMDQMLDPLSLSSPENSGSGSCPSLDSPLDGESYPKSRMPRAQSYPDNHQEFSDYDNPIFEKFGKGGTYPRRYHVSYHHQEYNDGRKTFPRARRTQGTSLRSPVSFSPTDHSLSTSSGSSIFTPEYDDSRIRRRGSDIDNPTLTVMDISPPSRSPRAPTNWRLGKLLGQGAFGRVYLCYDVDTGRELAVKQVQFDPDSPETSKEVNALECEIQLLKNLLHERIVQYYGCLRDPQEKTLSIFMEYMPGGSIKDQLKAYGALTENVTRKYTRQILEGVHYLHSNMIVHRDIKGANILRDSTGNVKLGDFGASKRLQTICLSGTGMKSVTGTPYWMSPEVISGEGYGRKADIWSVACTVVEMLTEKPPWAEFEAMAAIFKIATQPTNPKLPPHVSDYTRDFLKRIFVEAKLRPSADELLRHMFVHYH
Conditions: read-out: %Inh MAP3K2.

SMILES strings stand for the structures.

Chain of ERN1 (O75460 19-977): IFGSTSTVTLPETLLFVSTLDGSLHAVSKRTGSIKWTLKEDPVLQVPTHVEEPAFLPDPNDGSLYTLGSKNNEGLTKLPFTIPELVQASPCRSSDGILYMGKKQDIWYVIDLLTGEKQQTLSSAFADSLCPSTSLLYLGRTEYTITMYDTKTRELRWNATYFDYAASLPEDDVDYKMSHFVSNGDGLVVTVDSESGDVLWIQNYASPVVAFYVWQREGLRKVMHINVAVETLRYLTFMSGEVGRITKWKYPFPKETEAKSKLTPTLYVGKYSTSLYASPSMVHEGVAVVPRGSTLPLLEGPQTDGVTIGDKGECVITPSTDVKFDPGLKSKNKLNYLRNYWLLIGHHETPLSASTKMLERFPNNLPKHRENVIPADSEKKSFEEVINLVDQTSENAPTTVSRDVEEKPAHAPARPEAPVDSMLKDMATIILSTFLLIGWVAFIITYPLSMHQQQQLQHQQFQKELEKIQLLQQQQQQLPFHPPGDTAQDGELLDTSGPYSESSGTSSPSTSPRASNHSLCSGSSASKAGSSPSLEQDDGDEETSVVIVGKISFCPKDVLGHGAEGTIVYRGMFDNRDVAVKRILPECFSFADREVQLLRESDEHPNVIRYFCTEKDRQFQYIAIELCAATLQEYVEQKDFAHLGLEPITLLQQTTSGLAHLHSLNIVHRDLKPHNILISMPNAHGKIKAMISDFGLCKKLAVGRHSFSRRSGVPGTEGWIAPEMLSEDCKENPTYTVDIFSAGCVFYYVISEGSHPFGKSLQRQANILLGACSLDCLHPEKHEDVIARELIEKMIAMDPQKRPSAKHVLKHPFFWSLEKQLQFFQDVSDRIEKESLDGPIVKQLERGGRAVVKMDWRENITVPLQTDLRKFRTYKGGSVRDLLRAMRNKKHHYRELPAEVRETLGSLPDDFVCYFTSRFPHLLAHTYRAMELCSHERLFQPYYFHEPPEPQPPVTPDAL
Chain of FGFR1 (P11362 22-822): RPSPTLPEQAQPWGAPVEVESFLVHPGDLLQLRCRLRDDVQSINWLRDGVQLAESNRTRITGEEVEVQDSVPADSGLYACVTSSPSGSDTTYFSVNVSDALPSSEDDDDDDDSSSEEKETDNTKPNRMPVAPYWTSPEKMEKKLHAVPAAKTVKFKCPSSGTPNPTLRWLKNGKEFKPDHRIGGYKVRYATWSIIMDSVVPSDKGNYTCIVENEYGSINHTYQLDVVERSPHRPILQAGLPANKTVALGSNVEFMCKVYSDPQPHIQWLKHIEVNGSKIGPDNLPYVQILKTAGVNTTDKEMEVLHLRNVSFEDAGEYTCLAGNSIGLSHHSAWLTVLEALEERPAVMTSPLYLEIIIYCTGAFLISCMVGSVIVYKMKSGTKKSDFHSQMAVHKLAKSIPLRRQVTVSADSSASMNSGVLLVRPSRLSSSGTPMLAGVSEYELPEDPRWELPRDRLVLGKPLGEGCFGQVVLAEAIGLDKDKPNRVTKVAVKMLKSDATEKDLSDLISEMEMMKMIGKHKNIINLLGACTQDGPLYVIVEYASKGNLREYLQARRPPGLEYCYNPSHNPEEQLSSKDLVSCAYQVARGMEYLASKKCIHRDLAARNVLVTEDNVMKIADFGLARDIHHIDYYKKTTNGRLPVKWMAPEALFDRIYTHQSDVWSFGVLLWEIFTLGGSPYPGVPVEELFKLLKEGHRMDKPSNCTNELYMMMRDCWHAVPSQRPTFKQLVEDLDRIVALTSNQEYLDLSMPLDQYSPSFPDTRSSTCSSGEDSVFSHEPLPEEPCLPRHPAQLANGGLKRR
Chain of CLK1 (P49759 whole entry): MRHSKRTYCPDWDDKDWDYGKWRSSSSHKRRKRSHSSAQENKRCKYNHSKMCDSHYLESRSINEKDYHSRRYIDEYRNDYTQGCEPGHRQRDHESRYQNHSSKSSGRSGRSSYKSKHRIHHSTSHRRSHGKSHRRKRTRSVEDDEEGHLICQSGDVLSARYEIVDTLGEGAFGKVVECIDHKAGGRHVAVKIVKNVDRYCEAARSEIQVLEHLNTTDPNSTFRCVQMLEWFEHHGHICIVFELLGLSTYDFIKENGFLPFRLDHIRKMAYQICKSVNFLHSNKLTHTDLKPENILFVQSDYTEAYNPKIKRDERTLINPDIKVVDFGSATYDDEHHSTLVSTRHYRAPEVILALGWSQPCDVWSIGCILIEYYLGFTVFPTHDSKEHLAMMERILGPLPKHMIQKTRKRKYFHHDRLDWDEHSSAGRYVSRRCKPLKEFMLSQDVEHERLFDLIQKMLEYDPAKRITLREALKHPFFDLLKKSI
Chain of CSNK1G2 (P78368 whole entry): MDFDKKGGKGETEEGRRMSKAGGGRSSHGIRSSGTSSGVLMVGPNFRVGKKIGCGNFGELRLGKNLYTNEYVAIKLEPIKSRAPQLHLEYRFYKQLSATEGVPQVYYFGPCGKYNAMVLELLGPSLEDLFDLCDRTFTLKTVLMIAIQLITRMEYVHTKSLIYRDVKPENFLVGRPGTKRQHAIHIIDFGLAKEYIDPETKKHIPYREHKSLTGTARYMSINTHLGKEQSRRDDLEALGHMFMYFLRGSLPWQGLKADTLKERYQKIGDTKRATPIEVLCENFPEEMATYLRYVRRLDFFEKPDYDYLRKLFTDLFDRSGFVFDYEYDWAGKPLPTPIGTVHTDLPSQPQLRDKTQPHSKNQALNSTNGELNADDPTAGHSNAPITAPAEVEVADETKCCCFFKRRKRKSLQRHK
Chain of CAMK2A (Q9UQM7 whole entry): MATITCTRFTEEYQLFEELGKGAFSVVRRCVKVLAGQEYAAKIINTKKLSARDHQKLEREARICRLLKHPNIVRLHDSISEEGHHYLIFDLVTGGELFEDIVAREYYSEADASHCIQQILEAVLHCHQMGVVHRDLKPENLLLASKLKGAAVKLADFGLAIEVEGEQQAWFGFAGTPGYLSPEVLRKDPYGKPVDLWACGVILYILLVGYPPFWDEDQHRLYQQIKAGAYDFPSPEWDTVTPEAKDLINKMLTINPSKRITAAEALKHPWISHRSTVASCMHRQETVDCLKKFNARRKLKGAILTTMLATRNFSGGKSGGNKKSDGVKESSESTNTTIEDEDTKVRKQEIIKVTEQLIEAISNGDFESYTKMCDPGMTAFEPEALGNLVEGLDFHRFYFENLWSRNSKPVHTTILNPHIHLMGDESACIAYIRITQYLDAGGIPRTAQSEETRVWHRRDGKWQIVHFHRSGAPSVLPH
Chain of FYN (P06241 whole entry): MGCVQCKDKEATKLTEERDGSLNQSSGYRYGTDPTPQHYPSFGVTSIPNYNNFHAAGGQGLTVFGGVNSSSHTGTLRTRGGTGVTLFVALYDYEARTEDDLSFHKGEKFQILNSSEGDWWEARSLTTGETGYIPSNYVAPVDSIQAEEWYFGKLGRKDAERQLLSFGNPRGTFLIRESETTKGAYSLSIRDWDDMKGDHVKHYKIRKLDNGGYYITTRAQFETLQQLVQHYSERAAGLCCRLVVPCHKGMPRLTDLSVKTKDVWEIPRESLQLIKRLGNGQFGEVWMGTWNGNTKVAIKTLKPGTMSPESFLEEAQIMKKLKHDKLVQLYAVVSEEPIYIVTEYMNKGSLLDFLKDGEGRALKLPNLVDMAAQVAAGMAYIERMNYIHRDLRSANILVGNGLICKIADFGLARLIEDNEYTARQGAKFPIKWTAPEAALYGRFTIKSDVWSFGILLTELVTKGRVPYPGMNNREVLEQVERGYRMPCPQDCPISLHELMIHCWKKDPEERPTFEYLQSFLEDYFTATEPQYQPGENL

As to `O=c1cc(N2CCOCC2)nc2n(Cc3cccc(Cl)c3Cl)c(C3CC3)nn12` [UNC10225469A], the inhibition at 1 µM worked out at 0% in [1]; 0% in experiment [2]; 5% in experiment [3]; 5% in experiment [4]; 6% in experiment [5]; 0% in experiment [6]. In addition, the inhibition at 1 µM in [7] was 25%; in experiment [8], 27%; in experiment [9] it was 0%.
Regarding `COc1cccc(OC)c1C(=O)Nc1cccc(-c2nn3ccccc3c2-c2ccnc(Nc3cccc(F)c3)n2)c1` [UNC10225310A], the inhibition at 1 µM in experiment [1] came out at 10%; in experiment [2], 11%; in experiment [3], 17%; in [4], 0%; in [5] it was 22%; in experiment [6], 0%. In addition, the inhibition at 1 µM in experiment [7] worked out at 27%; in experiment [8] it was 21%; in experiment [9], 7%.
On to `CS(=O)(=O)Cc1ccc(Nc2nccc(-c3c(-c4cccc(NC(=O)C5CCCCC5)c4)nn4ncccc34)n2)cc1` [UNC10225159A], for which the inhibition at 1 µM worked out at 33% in [1]; 0% in experiment [2]; 5% in [3]; 0% in experiment [4]; 1% in [5]; 27% in experiment [6]. The results for the inhibition at 1 µM in experiment [7], in [8] and in experiment [9] were 15%, 10% and 15%, respectively.
`Cc1ccc(NC(=O)Nc2cccc(C(F)(F)F)c2)cc1` [UNC10225187A]: the inhibition at 1 µM in experiment [1] is 0%; in experiment [2], 1%; in experiment [3], 1%; in experiment [4], 5%; in [5] it was 0%; in experiment [6] it was 0%. Besides, the inhibition at 1 µM was found to be 32% in [7], 3% in experiment [8] and 0% in experiment [9].
Regarding `Cn1cc(-c2cnc(N)c3c(-c4ccc5c(c4)CCN5C(=O)Cc4ccccc4)csc23)cn1` [UNC10225012A], the inhibition at 1 µM in experiment [1] is 28%; in [2] it was 28%; in experiment [3], 7%; in experiment [4], 0%; in experiment [5], 25%; in [6], 1%. The inhibition at 1 µM was determined as 29% in [7], 15% in [8] and 75% in experiment [9].
